From patent publication US10350184B2, “Derivatives used in the treatment of muscle atrophy” (METABRAIN RESEARCH, priority 2015, dated 2019)

Key:
muscle cells = experiment: Protein synthesis (via phosphorylation of S6K1) in muscle cells; format: cell-based; conditions: for Protein Synthesis (percentage increase in 56K phosphorylation in muscle cells): significant when greater than 120%
Description: The cells are counted and seeded at a density of […] cells per well in a 24-well plate in a DMEM medium containing glucose at 4.5 g/L and supplemented with fetal calf serum (10%) and antibiotics (penicillin and streptomycin). […] The cells are then placed in a medium without glucose or leucine (Krebs medium) for 1 hour at 37° C., and then incubated for 2 hours and 30 minutes in the presence of the test products or reference, (IGF-1, 100 ng/ml) in serum-free DMEM medium containing radiolabeled leucine 2.5 μCi/mL. At the end of the incubation, the supernatants are removed and the cells are lysed in a 0.1N NaOH solution for 30 min. The radioactivity is measured in the cell fraction and the total protein amount is determined by Lowry assay. Each condition is evaluated at a minimum of n=6; IGF-1, 100 ng/mL is our control to stimulate protein synthesis. The results are expressed in cpm/μg of proteins after 2.5 hours of incubation or as a percentage with respect to the control condition.
For the effects on protein synthesis, the results are expressed as a percentage increase in 56K phosphorylation in muscle cells. This percentage is considered significant when it is greater than 120%, the observed average value of IGF-1 at the concentration of 100 ng/mL in this test, considered as reference.

[1] = system: myostatin gene expression; experiment: Measurement of myostatin expression in C2Cl2 (qPCR); format: cell-based, Mouse; conditions: for inhibition of the expression of myostatin: C2Cl2 cells, Table 1, 0.5 μm; for percentage of myostatin gene expression in cells in contact with the molecules related to the expression in the control cells: concentration of the compound 0.5 μm, 6 h, active if less than or close to 70%
Description: C2Cl2 myoblastic cells (ATCC CRL-1772) are seeded in 24-well plates at the density of 30,000 cells per well and cultured in DMEM (Dulbecco's Modified Eagle Medium) medium containing glucose at 4.5 g/L and supplemented with fetal calf serum (10%) and antibiotics (penicillin and streptomycin). […] The cells are then placed in a glucose-depleted medium (DMEM containing 1 g/L of glucose) and devoid of serum in the presence of the test molecules or references (IGF-1 at a concentration of 100 ng/ml) for 6 h. At the end of the experiment, messenger RNAs (mRNAs) are extracted using standard phenol and chloroform methodology. Briefly, the cells are lysed in a solution of trizol (Sigma T9424) containing a strong acid and phenol. The mRNAs are separated from the proteins by the addition of chloroform followed by centrifugation. They are then precipitated in isopropanol and then suspended at the concentration of 1 μg/μL in ultra-pure water free of RNA and DNA. 1 μg of mRNA is then converted by retro-transcription into complementary DNA by the AMV enzyme in the presence a primer and a mixture of nucleotides according to the protocol given by the supplier (Applied Biosystems 4368814). […] QPCRs are performed on a 79001-IT Fast Real-Time PCR detection system (Applied Biosystems). The programming conditions are standard and consist of 1 cycle at 95° C. for 15 min, followed by 40 cycles at 95° C. for 15 sec and 60° C. for 1 min and finalized with a melt curve step at 60° C. and 95° C. The analyzed samples all contain 100 ng of cDNA, a qPCR buffer including the enzyme, the mixture of oligonucleotides and the intercalating SYBR green, and the pair of specific primers of the gene being studied, strategically chosen between two exon sequences and at a final concentration of 200 nM. Fluorescent probes bind to the double-stranded. DNA and fluoresce only once attached to the DNA. A fluorescence threshold is established by the program of the machine. When the amount of DNA allows the fluorescent probe to exceed this threshold, a PCR cycle number called “Ct” is obtained for “cycle threshold” or cycle threshold. It is this value that is the basis of the calculations to quantify the DNA in a relative fashion. A ratio R is set between the amount of the starting DNA in a sample and that of a control, which has not been treated (i.e., R=2^−(Ct Sample−Ct Control)) and this measurement will be compared to that of a household gene known to be unmodulated by the treatment (or R=2^−NRCt).
The primers used are recorded in the following table: […]
For the effects on myostatin expression, the results are expressed as a percentage of myostatin gene expression in cells in contact with the molecules related to the expression in the control cells. The product is supposed to be active if this ratio is less than or close to 70%, the average, value of IGF-1 found at the concentration of 100 ng/mL in this test, considered as reference.

C2Cl2 cells = experiment: Evaluation of muscle fiber diameter; format: cell-based; conditions: vs vehicle control
Description: The C2Cl2 myoblastic cells (ATCC CRL-1772) were seeded into glycerol-treated 8-well plates at a density of 10,000 cells per well and cultured in a DMEM medium containing glucose at 4.5 g/L and supplemented with fetal calf serum (10%) and antibiotics (penicillin and streptomycin).
The cells are then placed in a glucose-depleted medium (DMEM containing 1 g/L of glucose) and devoid of serum in the presence of the test molecules or references (IGF-1 at the concentration of 10 ng/mL or dexamethasone 10 nM) for 3 days. At the end of the culture, the cells are rinsed and fixed with 2.5% glutaraldehyde/0.1% Triton solution for 1 hour at room temperature. The cell layer is covered with DAPI (fluorescent labeling of the cell nucleus). After storage in the dark for 16 hours in the cold, the slides are observed under a fluorescence microscope (Carl Zeiss, AxioVert 200) and the images are analyzed using the Axiovision 4.1 software to measure the diameter of the fibers.
C2Cl2 cells are differentiated and treated with compound 1 for the last three days of differentiation.

Molecule | Protein Synthesis (percentage increase in 56K phosphorylation in muscle cells) (muscle cells; 0.5 μm) [%] | Protein Synthesis (percentage increase in 56K phosphorylation in muscle cells) (muscle cells; 5 μm) [%] | Protein Synthesis (percentage increase in 56K phosphorylation in muscle cells) (muscle cells; 50 μm) [%] | protein synthesis in muscle cells (muscle cells; concentration of 0.5 μM) | inhibition of the expression of myostatin [1] | percentage of myostatin gene expression in cells in contact with the molecules related to the expression in the control cells [1] [%] | diameter of the myotubes (muscle fiber diameter, FIG. 1) (C2Cl2 cells; compound 1 at 10 μM, last three days of differentiation) | Protein synthesis, observed average value of reference (muscle cells; IGF-1 at 100 ng/mL) [%] | percentage of myostatin gene expression related to control cells, average value of reference ([1]; IGF-1 at 100 ng/mL) [%] | diameter of myotubes (muscle fiber diameter, FIG. 1) (C2Cl2 cells; IGF1 at 10 ng/ml, 3 days)
CCON=C(CCC(=O)O)c1ccc(Cl)c(Cl)c1 [Compound 1, 4-(3,4-dichlorophenyl)-4-ethoxyimino-butanoic acid] | 134 | 142 | 151 | significantly increases | significantly inhibit | 71 | significantly increased | – | – | –
CCON=C(CCC(=O)OC(C)C)c1ccc(Cl)c(Cl)c1 [Compound 3, Isopropyl acid 4-(3,4-dichlorophenyl)-4-ethoxyimino-butanoate] | – | – | – | – | significantly inhibit | 41 | – | – | – | –
IGF-1: reference used to inhibit myostatin expression, stimulate protein synthesis and increase myotube diameter [reference compound] | – | – | – | – | – | – | – | 120 | 70 | significantly increases
